Laboratory results taken from PMC10712727, “Safety, Tolerability, and Pharmacokinetics of Senaparib, a Novel PARP1/2 Inhibitor, in Chinese Patients With Advanced Solid Tumors: A Phase I Trial” (The Oncologist, 2023).

Experiment: Plasma pharmacokinetics after single-dose administration (HPLC-MS/MS)
Assay type: in vivo, human
Description: Dose escalation was conducted using a modified Fibonacci 3 + 3 method (Supplementary Fig. […] At a given dose level, each patient received a single dose of senaparib followed by a 7-day washout period. They then entered a continuous dosing period to confirm the safety and PK profile, in which they received senaparib QD from day 1 to day 21 of each 3-week cycle. Progression to the next higher dose required approval from the Data Safety Monitoring Committee (DSMC) upon review of the safety and PK data of the previous dose. A 50-mg twice-daily (BID) dosing group was added (planned enrollment, n = 6 patients) based on a DSMC review of the safety, PK, and efficacy analysis of the completed QD dose groups in the phase I clinical trial of senaparib dose escalation in Australia (NCT03507543), which commenced prior to the start of this trial. Safety was assessed by recording the incidence of dose-limiting toxicities (DLTs), and the incidence, nature, severity (graded per National Cancer Institute Common Terminology Criteria for Adverse Events version 4.03 [NCI CTCAE v4.03][18]), and relatedness of treatment-emergent adverse events (TEAEs). DLTs were predefined toxicities (Supplementary Table S2) recorded over the 7 days following the single-dose administration of senaparib and during the first treatment cycle (day 1-day 21) for each dose group in the dose-escalation period only. […] Senaparib PK parameters were derived from blood samples collected from patients after the single administration, and at regular intervals during the first cycle of the dose-escalation and dose-expansion periods. Plasma concentrations of senaparib were determined using high-performance liquid chromatography-tandem mass spectrometry. […] There was no formal sample size calculation based on statistical hypothesis testing for this study; the planned enrolment was approximately 30-60 patients across the dose-escalation and dose-expansion cohorts. The actual number in the dose-escalation cohort was adjusted based on the number of dose cohorts required for the modified Fibonacci dose-escalation design and the determined MTD. Definitions for all analysis populations (safety, DLT, PK, and efficacy [intent-to-treat, ITT]) are provided in Supplementary Table S2. No statistical tests were performed; patient demographic and baseline characteristics, safety/tolerability, PK parameters, and efficacy were evaluated descriptively. ORR and DCR and their 95% CIs were calculated for each group using the exact probability method. Kaplan-Meier statistics were used to estimate DOR and PFS, and their 95% CIs for each dose group separately. Dose linearity was explored based on the single-dose data of area under the time-concentration curve (AUC) and maximum plasma concentration (Cmax) using the power model (Y = α × dose β) for the dose range 2-80 mg on a log-transformed scale. The following criterion was used to determine whether dose proportionality was met: if the (2-sided) 90% CI for β was wholly contained within the interval (1 + log(0.5)/log(r), 1 + log(2)/log(r)), then dose proportionality was supported. Here, r was defined as the ratio of the highest to lowest dose. All data analyses were carried out using SAS EG7.1 or higher or (for PK parameters) WinNonlin 7.0 or higher.

O=C(c1cc(Cn2c(=O)[nH]c(=O)c3c(F)cccc32)ccc1F)N1CCN(c2ncccn2)CC1 [Senaparib]
Elimination half-life, range (human, in vivo): 5.1 to 24.3 h
Mean apparent clearance, range across dose groups (human, in vivo): 1.0 to 6.3 L/h
Mean volume of distribution, range across dose groups (human, in vivo): 15.5 to 88.7 L
Median time to Cmax, range across dose groups (human, in vivo): 0.5 to 6.0 h
AUC0-inf, mean±SD (human, in vivo, 2 mg): 1754.1 ng·h/mL
AUC0-t, mean±SD (human, in vivo, 2 mg): 1462.4 ng·h/mL
CL/F, mean±SD (human, in vivo, 2 mg): 1.1 L/h
Cmax, mean±SD (human, in vivo, 2 mg): 177.0 ng/mL
Tmax, median (range) (human, in vivo, 2 mg): 1.0 (1.0-1.0) h
Vd/F, mean±SD (human, in vivo, 2 mg): 21.3 L
t½, median (range) (human, in vivo, 2 mg): 13.0 (13.0-13.0) h
λz, mean±SD (human, in vivo, 2 mg): 5.3 h⁻¹
AUC0-inf, mean±SD (human, in vivo, 5 mg): 4107.2 ± 2303.2 ng·h/mL
AUC0-t, mean±SD (human, in vivo, 5 mg): 3912.7 ± 2180.7 ng·h/mL
CL/F, mean±SD (human, in vivo, 5 mg): 1.5 ± 0.7 L/h
Cmax, mean±SD (human, in vivo, 5 mg): 378.7 ± 76.1 ng/mL
Tmax, median (range) (human, in vivo, 5 mg): 1.9 (1.9-2.0) h
Vd/F, mean±SD (human, in vivo, 5 mg): 15.5 ± 3.5 L
t½, median (range) (human, in vivo, 5 mg): 7.7 (5.8-10.8) h
λz, mean±SD (human, in vivo, 5 mg): 5.2 ± 4.6 h⁻¹
AUC0-inf, mean±SD (human, in vivo, 10 mg): 9954.7 ± 1274.9 ng·h/mL
AUC0-t, mean±SD (human, in vivo, 10 mg): 9053.7 ± 887.5 ng·h/mL
CL/F, mean±SD (human, in vivo, 10 mg): 1.0 ± 0.1 L/h
Cmax, mean±SD (human, in vivo, 10 mg): 606.7 ± 93.5 ng/mL
Tmax, median (range) (human, in vivo, 10 mg): 4.0 (2.0-4.0) h
Vd/F, mean±SD (human, in vivo, 10 mg): 19.6 ± 0.8 L
t½, median (range) (human, in vivo, 10 mg): 14.4 (11.0-15.2) h
λz, mean±SD (human, in vivo, 10 mg): 5.2 ± 0.9 h⁻¹
AUC0-inf, mean±SD (human, in vivo, 20 mg): 18 955.2±3835.6 h*ng/mL
AUC0-t, mean±SD (human, in vivo, 20 mg): 16 945.0±11 287.2 h*ng/mL
CL/F, mean±SD (human, in vivo, 20 mg): 1.7 ± 1.4 L/h
Cmax, mean±SD (human, in vivo, 20 mg): 1453.3 ± 408.1 ng/mL
Tmax, median (range) (human, in vivo, 20 mg): 1.9 (1.8-1.9) h
Vd/F, mean±SD (human, in vivo, 20 mg): 19.1 ± 4.5 L
t½, median (range) (human, in vivo, 20 mg): 11.2 (5.1-17.1) h
λz, mean±SD (human, in vivo, 20 mg): 3.5 ± 3.1 h⁻¹
AUC0-inf, mean±SD (human, in vivo, 40 mg): 16 904.8±4182.4 h*ng/mL
AUC0-t, mean±SD (human, in vivo, 40 mg): 16 428.2±3762.6 h*ng/mL
CL/F, mean±SD (human, in vivo, 40 mg): 2.5 ± 0.7 L/h
Cmax, mean±SD (human, in vivo, 40 mg): 1680.0 ± 148.0 ng/mL
Tmax, median (range) (human, in vivo, 40 mg): 1.8 (1.0-1.8) h
Vd/F, mean±SD (human, in vivo, 40 mg): 30.9 ± 2.6 L
t½, median (range) (human, in vivo, 40 mg): 9.3 (7.3-10.2) h
λz, mean±SD (human, in vivo, 40 mg): 7.9 ± 1.4 h⁻¹
AUC0-inf, mean±SD (human, in vivo, 50 mg): 35 588.9±27 788.9 h*ng/mL
AUC0-t, mean±SD (human, in vivo, 50 mg): 12 067.8±5895.4 h*ng/mL
CL/F, mean±SD (human, in vivo, 50 mg): 2.4 ± 2.0 L/h
Cmax, mean±SD (human, in vivo, 50 mg): 1560.0 ± 564.3 ng/mL
Tmax, median (range) (human, in vivo, 50 mg): 0.7 (0.5-3.5) h
Vd/F, mean±SD (human, in vivo, 50 mg): 36.4 ± 8.6 L
t½, median (range) (human, in vivo, 50 mg): 16.5 (5.7-24.3) h
λz, mean±SD (human, in vivo, 50 mg): 3.3 ± 2.9 h⁻¹
AUC0-inf, mean±SD (human, in vivo, 60 mg): 25 575.8±10 554.7 h*ng/mL
AUC0-t, mean±SD (human, in vivo, 60 mg): 24 929.7±9991.9 h*ng/mL
CL/F, mean±SD (human, in vivo, 60 mg): 2.6 ± 0.9 L/h
Cmax, mean±SD (human, in vivo, 60 mg): 2476.7 ± 342.7 ng/mL
Tmax, median (range) (human, in vivo, 60 mg): 2.0 (2.0-3.6) h
Vd/F, mean±SD (human, in vivo, 60 mg): 32.0 ± 8.8 L
t½, median (range) (human, in vivo, 60 mg): 8.5 (7.9-9.9) h
λz, mean±SD (human, in vivo, 60 mg): 8.0 ± 0.9 h⁻¹
AUC0-inf, mean±SD (human, in vivo, 80 mg): 76 255.9±33 943.0 h*ng/mL
AUC0-t, mean±SD (human, in vivo, 80 mg): 62 385.0±22 693.1 h*ng/mL
CL/F, mean±SD (human, in vivo, 80 mg): 1.2 ± 0.6 L/h
Cmax, mean±SD (human, in vivo, 80 mg): 3860.0 ± 1475.0 ng/mL
Tmax, median (range) (human, in vivo, 80 mg): 2.0 (2.0-2.0) h
Vd/F, mean±SD (human, in vivo, 80 mg): 30.6 ± 14.5 L
t½, median (range) (human, in vivo, 80 mg): 17.0 (13.3-23.7) h
λz, mean±SD (human, in vivo, 80 mg): 4.1 ± 1.1 h⁻¹
AUC0-inf, mean±SD (human, in vivo, 100 mg): 40 487.6±20 226.7 h*ng/mL
AUC0-t, mean±SD (human, in vivo, 100 mg): 38 505.2±18 191.9 h*ng/mL
CL/F, mean±SD (human, in vivo, 100 mg): 3.1 ± 1.6 L/h
Cmax, mean±SD (human, in vivo, 100 mg): 3425.0 ± 1516.1 ng/mL
Tmax, median (range) (human, in vivo, 100 mg): 2.0 (1.0-4.0) h
Vd/F, mean±SD (human, in vivo, 100 mg): 39.6 ± 1.1 L
t½, median (range) (human, in vivo, 100 mg): 10.4 (6.6-12.9) h
λz, mean±SD (human, in vivo, 100 mg): 5.7 ± 3.3 h⁻¹
AUC0-inf, mean±SD (human, in vivo, 120 mg): 68 650.9±89 085.5 h*ng/mL
AUC0-t, mean±SD (human, in vivo, 120 mg): 55 962.4±66 684.5 h*ng/mL
CL/F, mean±SD (human, in vivo, 120 mg): 6.3 ± 5.8 L/h
Cmax, mean±SD (human, in vivo, 120 mg): 3348.3 ± 2828.8 ng/mL
Tmax, median (range) (human, in vivo, 120 mg): 1.9 (1.8-6.0) h
Vd/F, mean±SD (human, in vivo, 120 mg): 88.7 ± 86.2 L
t½, median (range) (human, in vivo, 120 mg): 11.3 (6.3-23.8) h
λz, mean±SD (human, in vivo, 120 mg): 3.8 ± 2.9 h⁻¹
Senaparib exposure (Cmax and AUC) versus dose (single dose, 80-120 mg): appeared to plateau
